# Measured values: patent US5559096A, “Pharmaceutical compositions against gastric disorders” (Applied Microbiology, Inc., priority 1991, dated 1996)
# Positions of bridges follow the written chain, without caps; N, C: chain ends. Non-standard residues stand in square brackets, D forms with d. Primed or numbered codes have the meaning given here. No end group written: not given here. Dhb′ = not defined here; Abu = CC[C@H](N)C(=O)O; Dha = C=C(N)C(=O)O
# How the values were obtained:
# Helicobacter pylori [1] = assay: Kill time at 4 times the average MIC; type: cell-based; conditions: time taken to reduce microbe levels to <200 viable organisms; drug concentration 4 times the average MIC
# Protocol: Kill time was calculated as the time taken to reduce microbe levels to <200 viable organisms using a drug concentration equal to 4 times the average MIC value for the test compound.
# H.pylori NCTC 11637 = assay: MIC by spiral plater, H.pylori NCTC 11637; type: cell-based, Helicobacter pylori; conditions: H.pylori NCTC 11637, human strain
# Protocol: (§1) The Minimum Inhibitory Concentration (MIC) of bacteriocin antimicrobial agents against a human strains of H.pylori (H.pylori NCTC 11916 and NCTC 11637) were assessed using a spiral plater and automatic agar plate pourer, according to the method of Wallace A. S. and Corkill J. E. (J. Microbial. Methods, 10, 303-310, 1989). MIC values were calculated according to the equation for the Archimedes spiral.
# H.pylori NCTC 11916 = assay: MIC by spiral plater, H.pylori NCTC 11916; type: cell-based, Helicobacter pylori; conditions: H.pylori NCTC 11916, human strain
# Protocol: as §1
# Helicobacter pylori [2] = assay: Kill time assay: effect of citrate on antimicrobial activity (microbe survival); type: cell-based; conditions: Citrate 10 mM; for Mean Counts CFU/ml 1 min: 1 min after inoculation; for Mean Counts CFU/ml 5 min: 5 min after inoculation; for Mean Counts CFU/ml 30 min: 30 min after inoculation
# Protocol: A kill time assay was carried out to determine the effect of citrate on antimicrobial activity. Microbe survival was assessed after treatment with bacteriocin alone and bacteriocin plus citrate. The effect of citrate alone was also measured. Survival was measured at 1,5 and 30 minutes after inoculation. Activity is expressed as the mean number of counts of colony forming units (CFU) per ml.
# [3] = Initial Inoculum 8.92 × 10^4, Ambicin N 300 ppm
Compound,Kill Time (Helicobacter pylori [1]),MIC Value NCTC 11637 (H.pylori NCTC 11637) [µg/mL],MIC Value NCTC 11916 (H.pylori NCTC 11916) [µg/mL],Mean Counts CFU/ml 1 min (Helicobacter pylori [2]; Initial Inoculum 2.39 × 10^5),Mean Counts CFU/ml 5 min (Helicobacter pylori [2]; Initial Inoculum 2.39 × 10^5),Mean Counts CFU/ml 30 min (Helicobacter pylori [2]; Initial Inoculum 2.39 × 10^5),Mean Counts CFU/ml 1 min (Helicobacter pylori [2]; [3]),Mean Counts CFU/ml 5 min (Helicobacter pylori [2]; [3]),Mean Counts CFU/ml 30 min (Helicobacter pylori [2]; [3])
Gramicidin,> 30,1.0 to 3.5,0.5 to 3.0,7.69 × 10^3 CFU/ml,1.44 × 10^4 CFU/ml,1.35 × 10^4 CFU/ml,,,
"Ambicin N: purified form of nisin made available by Applied Microbiology Inc. under the trade name AMBICIN N (I[Dhb′]AI[Dha]LC[Abu]PGCK[Abu]GALMGCNMK[Abu]A[Abu]CHCSIHV[Dha]K; thioether 8-11, 13-19, 23-26, 25-28, 3-7; UniProt P13068 24-57, looked up)",> 30,50 to 300,50 to 300,,,,6.31 × 10^4 CFU/ml,5.71 × 10^4 CFU/ml,4.72 × 10^4 CFU/ml
O=C(O)CC(O)(CC(=O)O)C(=O)O [Citrate],,,,1.59 × 10^4 CFU/ml,1.42 × 10^4 CFU/ml,1.95 × 10^4 CFU/ml,7.98 × 10^4 CFU/ml,8.64 × 10^4 CFU/ml,6.92 × 10^4 CFU/ml
CC(C)C[C@@H]1NC(=O)[C@H](CCCN)NC(=O)[C@H](C(C)C)NC(=O)[C@H](Cc2ccc(O)cc2)N[C@@H](CCC(=O)O)C(=O)N[C@@H](CC(N)=O)C(=O)[C@@H](Cc2ccccc2)NC(=O)[C@H](Cc2ccccc2)NC(=O)[C@@H]2CCCN2C(=O)[C@@H](Cc2ccccc2)NC1=O [Tyrothricin],< 1,1.0 to 5.0,1.0 to 4.0,2.55 × 10^4 CFU/ml,1.77 × 10^4 CFU/ml,1.78 × 10^4 CFU/ml,,,
